Test results from patent publication US8841463B2, “Cathepsin C inhibitors” (GlaxoSmithKline Intellectual Property Development Limited, priority 2011, dated 2014).
Counter-ions that a name gives are not always drawn.

Molecular target: recombinant human cathepsin C (Homo sapiens, UniProt P53634)
Assay: Recombinant Cathepsin C in vitro assay (cleavage of fluorogenic substrate H-Ser-Tyr-AMC)
Format: biochemical
Conditions: average of two experiments; one hour preincubation, pH 5.5, room temperature; read-out: concentration giving 50% cathepsin C inhibition
Experimental: B. Recombinant Cathepsin C In Vitro Assay:
The activity of recombinant human cathepsin C was measured by the cleavage of a fluorogenic substrate, H-Ser-Tyr-AMC. Briefly, 24 pM cathepsin C was incubated with test compound (e.g. inhibitor) in a buffer consisting of 50 mM sodium acetate, 30 mM sodium chloride, 1 mM CHAPS, 1 mM dithiothreitol, 1 mM EDTA, pH 5.5 at room temperature for one hour. After one hour of incubating test compound with cathepsin C, the activity assay was initiated by the addition of an equal volume of 0.010 mM H-Ser-Tyr-AMC in the same buffer. After one hour, the activity assay was stopped by the addition of ⅕ volume of 100 μM E-64. The reaction product was measured on a fluorescence reader set at an excitation wavelength of 360 nm and emission wavelength of 460 nm and equipped with a 400 nm dichroic mirror.

Chain of recombinant human cathepsin C (P53634 25-463): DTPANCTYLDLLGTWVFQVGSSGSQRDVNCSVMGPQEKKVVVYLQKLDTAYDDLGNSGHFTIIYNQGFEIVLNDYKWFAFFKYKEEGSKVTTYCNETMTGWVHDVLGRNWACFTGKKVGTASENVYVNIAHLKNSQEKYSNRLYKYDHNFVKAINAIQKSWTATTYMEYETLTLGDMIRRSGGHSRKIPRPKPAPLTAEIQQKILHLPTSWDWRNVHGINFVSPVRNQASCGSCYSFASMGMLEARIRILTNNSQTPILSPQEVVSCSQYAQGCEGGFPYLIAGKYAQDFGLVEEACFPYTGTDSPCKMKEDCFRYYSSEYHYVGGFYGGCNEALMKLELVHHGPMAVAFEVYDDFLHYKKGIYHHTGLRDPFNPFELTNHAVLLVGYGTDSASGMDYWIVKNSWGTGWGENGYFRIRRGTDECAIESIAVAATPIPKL

IC50 | Compound
< 1 nM | CC[C@@H](/C=C/C(=O)N1CCc2ccccc21)NC(=O)C1(N)CCOCC1 [Example 1, 4-amino-N-[(1S,2E)-4-(2,3-dihydro-1H-indol-1-yl)-1-ethyl-4-oxo-2-buten-1-yl]tetrahydro-2H-pyran-4-carboxamide hydrochloride]
< 1 nM | CC(C)C[C@@H](/C=C/C(=O)N1CCc2ccccc21)NC(=O)C1(N)CCOCC1 [Example 2, 4-amino-N-[(1S,2E)-4-(2,3-dihydro-1H-indol-1-yl)-1-(2-methylpropyl)-4-oxo-2-buten-1-yl]tetrahydro-2H-pyran-4-carboxamide hydrochloride]
